Data on five compounds can be found in ChEMBL document CHEMBL3808359, “Conformational analysis of 2-substituted piperazines” (Bioorg Med Chem Lett, 2016).

The target in the assay is Neuronal acetylcholine receptor subunit alpha-7 (Homo sapiens, UniProt P36544). Kind of assay: Agonist activity at alpha7 nAChR (unknown origin).
Chain of Neuronal acetylcholine receptor subunit alpha-7 (P36544 whole entry): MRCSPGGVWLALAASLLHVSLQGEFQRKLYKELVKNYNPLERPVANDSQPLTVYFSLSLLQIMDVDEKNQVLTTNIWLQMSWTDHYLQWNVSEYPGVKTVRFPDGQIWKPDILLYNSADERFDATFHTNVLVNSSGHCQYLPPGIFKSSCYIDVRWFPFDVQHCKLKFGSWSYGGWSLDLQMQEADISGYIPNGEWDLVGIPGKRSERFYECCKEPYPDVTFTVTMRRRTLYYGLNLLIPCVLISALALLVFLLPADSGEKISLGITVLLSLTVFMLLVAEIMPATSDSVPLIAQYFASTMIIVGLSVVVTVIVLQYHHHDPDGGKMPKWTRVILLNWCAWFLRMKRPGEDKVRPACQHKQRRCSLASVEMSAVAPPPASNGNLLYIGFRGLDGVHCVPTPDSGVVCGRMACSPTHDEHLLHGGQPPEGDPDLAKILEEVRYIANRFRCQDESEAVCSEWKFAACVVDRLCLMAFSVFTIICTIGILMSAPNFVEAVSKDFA
As for `COc1ccc(NC(=O)N2CCNCC2COc2cccnc2)cc1` (stereo not given), the 50% inhibitory concentration (IC50) (commonly the concentration that gives 50% inhibition) stood at 11 nM.

`c1cncc(OC[C@H]2CNCCN2c2nc3ncccc3o2)c1`: the IC50 stood at 6 nM.

`COc1ccc(NC(=O)N2CCNC[C@@H]2COc2cccnc2)cc1` returned an IC50 of 19 nM.

In the case of `COc1ccc(NC(=O)N2CCNCC2CCc2cccnc2)cc1` (stereo not given), the IC50 is more than 5000 nM.

`COc1ccc(OC(=O)N2CCNCC2CCc2cccnc2)cc1` (stereo not given) gave an IC50 of more than 5000 nM.
